In patent publication US8003615B2, “Stable vitamin B6 derivative” (Daiichi Fine Chemical Co., Ltd., priority 2003, dated 2011):

Key:
[1] = Thermal stability of aqueous solution kept at 50° C., HPLC; type: physicochemical; details: 0.5% (w/v) aqueous solution, 50° C. for 90 days
Protocol: A 0.5% (w/v) aqueous solution of pyridoxine 3-β-D-glucoside (pH 6.7) in a volume of 0.3 ml was sealed in a 1-ml volume glass ampoule, and kept at 50° C. under light shielding. The sample was warmed for 90 days, and analyzed during the warming by HPLC (analysis conditions were the same as those applied in Test Example 1) to measure a pyridoxine 3-β-D-glucoside content. A solution of pyridoxine hydrochloride of the same concentration (adjusted to pH 6.7) was treated in the same manner, and the results were compared.
Aqueous solutions (0.5% (w/v)) of pyridoxine 3-β-D-glucoside hydrochloride, pyridoxal 3-β-D-glucoside, pyridoxamine 3-β-D-glucoside, pyridoxine 3-β-D-galactoside, pyridoxine hydrochloride, pyridoxal hydrochloride, and pyridoxamine hydrochloride (adjusted to pH 6.3 to 7.2 with HCl or NaOH) were each sealed in a volume of 0.3 ml in a 1-ml volume glass ampoule, […] in the same manner as in Test Example 2.
0.5% (w/v) Aqueous solutions of pyridoxine 3,4′-cyclic sodium phosphate and pyridoxine hydrochloride (adjusted to pH 6.5 to 6.8) were each sealed in a volume of 0.3 ml in a 1-ml volume glass ampoule, and warming at 50° C. and HPLC analysis were performed in the same manner as in Test Example 2.

[2] = Light stability in a lotion; type: physicochemical
Protocol: Ceramide formulation (0.1 g), 1,3-butylene glycol (2.5 g), dipropylene glycol (2.5 g), and methylparaben (0.01 g) were warmed at 80° C. and stirred until the mixture became transparent. The mixture was cooled to 35° C., then added with 0.1 g of a vitamin B6 derivative (pyridoxine 3-β-D-glucoside, pyridoxine 3-β-D-glucoside hydrochloride, or pyridoxine 3,4-cyclic sodium phosphate: in Test Examples 11 to 16 mentioned below, the “vitamin B6 derivative” means one of these three kinds of substances) or 0.1 g of pyridoxine 3-sodium sulfate, 1.0 g of sorbitol-fermented polysaccharide and 90 ml of purified water with stirring, and the mixture were stirred until the added substances were dissolved. The solution was adjusted to pH 6.4 with 10% aqueous citric acid, and made into a volume of 100 ml with purified water to prepare a lotion. In this preparation, precipitates and the like were not observed. The prepared lotion in a volume of 6 ml was filled in a glass bottle, and exposed to light of a D65 fluorescent lamp at a total illumination of 0, 60,000, 180,000, or 300,000 lux·hr, and then the vitamin B6 derivative was quantified. The same sample was separately stored at 50° C., and after 0 day, 14 days, one month, and two months, the vitamin B6 derivative was quantified by the HPLC method described in Test Example 1.

Cc1ncc(CO)c(CO)c1O.Cl [pyridoxine hydrochloride]
coloring of the aqueous solution after the warming [1]: colored in yellow
remained substance in lotion after irradiation ([2]; lotion pH 6.4, D65 fluorescent lamp, 180,000 lux·hr for 3 days): 42%
remained substance in lotion after irradiation ([2]; lotion pH 6.4, D65 fluorescent lamp, 300,000 lux·hr for 5 days): 30%
